# Measured values as given in ChEMBL document CHEMBL4765321, “Discovery of new thieno[3,2-d]pyrimidine derivatives targeting EGFR NSCLCs by the conformation constrained strategy” (Eur J Med Chem, 2020).
# The source made the active and inactive calls. The calls are words filed in the database; no cut-off is given here.
# Key:
# [1] = test system: Epidermal growth factor receptor (Homo sapiens), P00533 [L858R,T790M]; test: Inhibition of N-terminal GST-fused human EGFR L858R/T790M double mutant cytoplasmic domain (669 to 1210 residues) expressed in baculovirus expression system using 5-FAM-EEPLYWSFPAKKK-CONH2 as substrate at 1 uM incubated for 20 mins by Mobility shift assay
# L02 = test: Cytotoxicity against human L0-2 cells assessed as reduction in cell viability measured after 72 hrs by MTT assay; assay type: ADME, cell-based; conditions: L02, 72 h
# NCI-H1975 [2] = test: cells; assay type: functional, cell-based; conditions: Homo sapiens, NCI-H1975, 72 h
# [3] = biological target: T1, Epidermal growth factor receptor (Homo sapiens, UniProt P00533); test: Inhibition of N-terminal GST-fused human wild type EGFR cytoplasmic domain (669 to 1210 residues) expressed in baculovirus expression system using 5-FAM-EEPLYWSFPAKKK-CONH2 as substrate incubated for 20 mins by Mobility shift assay
# A549 [4] = test: Antiproliferative activity against human A549 cells harboring wild type EGFR assessed as reduction in cell viability measured after 72 hrs by MTT assay; assay type: cell-based; conditions: A549, 72 h
# PC-9 = test: Antiproliferative activity against human PC9 cells harboring EGFRdel19 mutant assessed as reduction in cell viability measured after 72 hrs by MTT assay; assay type: functional, cell-based; conditions: PC-9, 72 h
# [5] = biological target: Epidermal growth factor receptor (Homo sapiens, UniProt P00533, L858R/T790M); test: Inhibition of N-terminal GST-fused human EGFR L858R/T790M double mutant cytoplasmic domain (669 to 1210 residues) expressed in baculovirus expression system using 5-FAM-EEPLYWSFPAKKK-CONH2 as substrate incubated for 20 mins by Mobility shift assay
# Homo sapiens = species on record: Homo sapiens; test: Selectivity index, ratio of IC50 for N-terminal GST-fused human wild type EGFR cytoplasmic domain (669 to 1210 residues) expressed in baculovirus expression system to IC50 for N-terminal GST-fused human EGFR L858R/T790M double mutant cytoplasmic domain (669 to 1210 residues) expressed in baculovirus expression system
# [6] = test system: Epidermal growth factor receptor (Homo sapiens), P00533 [L858R,T790M]; test: Inhibition of EGFR L858R/T790M double mutant in human H1975 cells assessed as inhibition of EGF-induced ERK phosphorylation at 1 uM incubated for 2 hrs followed by EGF stimulation for 10 mins by western blot analysis; assay type: cell-based; conditions: NCI-H1975, time 130.0 min
# [7] = biological target: T1, Epidermal growth factor receptor; test: Inhibition of EGFR phosphorylation in human A549 cells at 1 to 10 uM incubated for 2 hrs followed by EGF stimulation for 10 mins by western blot analysis; assay type: cell-based; conditions: a549, 2.167 h, dose 1-10 µM, time 130 min
# NCI-H1975 [8] = test: Inhibition of cell migration in human H1975 cells at 0.5 to 5 uM incubated for 48 hrs by scratch wound healing assay; assay type: functional, cell-based; conditions: dose 0.5-5 µM
# [9] = test system: Epidermal growth factor receptor (Homo sapiens), P00533 [L858R,T790M]; test: Inhibition of EGF-induced phosphorylation of EGFR L858R/T790M double mutant in human H1975 cells incubated for 2 hrs followed by EGF stimulation for 10 mins by western blot analysis; assay type: cell-based; conditions: NCI-H1975, dose 1-10 µM, time 130.0 min
# A549 [10] = test: Inhibition of cell migration in human A549 cells at 5 uM incubated for 48 hrs by scratch wound healing assay; assay type: cell-based; conditions: a549, 48 h
# [11] = test system: Epidermal growth factor receptor (Homo sapiens), P00533 [L858R,T790M]; test: Inhibition of EGFR L858R/T790M double mutant in human H1975 cells assessed as inhibition of EGF-induced ERK phosphorylation at 3 uM incubated for 2 hrs followed by EGF stimulation for 10 mins by western blot analysis; assay type: cell-based; conditions: NCI-H1975, time 130.0 min
# [12] = test system: Epidermal growth factor receptor (Homo sapiens), P00533 [L858R,T790M]; test: Inhibition of EGF-induced phosphorylation of EGFR L858R/T790M double mutant in human H1975 cells at 3 uM incubated for 2 hrs followed by EGF stimulation for 10 mins by western blot analysis; assay type: cell-based; conditions: NCI-H1975, time 130.0 min
# [13] = biological target: T1, Epidermal growth factor receptor; test: Binding affinity to wild type EGFR in human A549 cells assessed as increase in protein signal at 50 uM incubated for 4 hrs followed by heating from 40 to 64 degC for 5 mins by CETSA based western blot analysis; assay type: cell-based; conditions: a549, 4.083 h, time 245 min
# [14] = test system: Epidermal growth factor receptor (Homo sapiens), P00533 [L858R,T790M]; test: Inhibition of EGF-induced phosphorylation of EGFR L858R/T790M double mutant in human H1975 cells at 1 uM incubated for 2 hrs followed by EGF stimulation for 10 mins by western blot analysis; assay type: cell-based; conditions: NCI-H1975, time 130.0 min
# [15] = test system: Epidermal growth factor receptor (Homo sapiens), P00533 [L858R,T790M]; test: Inhibition of EGF-induced phosphorylation of EGFR L858R/T790M double mutant in human H1975 cells at 10 uM incubated for 2 hrs followed by EGF stimulation for 10 mins by western blot analysis; assay type: cell-based; conditions: NCI-H1975, time 130.0 min
# A549 [16] = test: Inhibition of colony formation in human A549 cells at 0.31 to 2.5 uM measured after 10 days by crystal violet staining based ELISA; assay type: cell-based; conditions: a549, 240 h, dose 0.31-2.5 µM, time 10 day
# [17] = biological target: T1, Epidermal growth factor receptor; test: Inhibition of EGFR in human A549 cells assessed as inhibition of ERK phosphorylation at 1 to 10 uM incubated for 2 hrs followed by EGF stimulation for 10 mins by western blot analysis; assay type: cell-based; conditions: a549, 2.167 h, dose 1-10 µM, time 130 min
# [18] = test system: Epidermal growth factor receptor (Homo sapiens), P00533 [L858R,T790M]; test: Binding affinity to EGFR L858R/T790M double mutant in human H1975 cells assessed as increase in protein signal at 50 uM incubated for 4 hrs followed by heating from 40 to 64 degC for 5 mins by CETSA based western blot analysis; assay type: cell-based; conditions: NCI-H1975, time 245.0 min
# [19] = test system: Epidermal growth factor receptor (Homo sapiens), P00533 [L858R,T790M]; test: Inhibition of EGFR L858R/T790M double mutant in human H1975 cells assessed as inhibition of EGF-induced ERK phosphorylation incubated for 2 hrs followed by EGF stimulation for 10 mins by western blot analysis; assay type: cell-based; conditions: NCI-H1975, dose 1-10 µM, time 130.0 min
# NCI-H1975 [20] = test: Inhibition of colony formation in human H1975 cells measured after 10 days by crystal violet staining based ELISA; assay type: functional, cell-based; conditions: dose 0.31-2.5 µM, time 10.0 day
# [21] = test system: Epidermal growth factor receptor (Homo sapiens), P00533 [L858R,T790M]; test: Inhibition of EGFR L858R/T790M double mutant in human H1975 cells assessed as inhibition of EGF-induced ERK phosphorylation at 10 uM incubated for 2 hrs followed by EGF stimulation for 10 mins by western blot analysis; assay type: cell-based; conditions: NCI-H1975, time 130.0 min
SMILES,inhibition [1],IC50 (L02),IC50 (NCI-H1975 [2]),IC50 [3],IC50 (A549 [4]),IC50 (PC-9),IC50 [5],Ratio IC50 (Homo sapiens),further results
CN1CCN(c2ccc(Nc3nc(Oc4ccc5ccc(=O)[nH]c5c4)c4sccc4n3)cc2F)CC1,82%,8.37 µM,14.5 µM,> 10 µM,> 20 µM,> 50 µM,–,–,–
O=c1ccc2ccc(Oc3nc(Nc4ccc(N5CCOCC5)cc4)nc4ccsc34)cc2[nH]1,56%,12.5 µM,–,> 10 µM,–,–,–,–,–
CN1CCN(c2nc(Oc3ccc4ccc(=O)[nH]c4c3)c3sccc3n2)CC1,inactive,–,–,–,–,–,> 1 µM,–,–
O=c1ccc2ccc(Oc3nc(Nc4ccc(N5CCS(=O)(=O)CC5)cc4)nc4ccsc34)cc2[nH]1,64%,–,–,> 10 µM,–,–,–,–,–
CCN1CCN(Cc2ccc(Nc3nc(Oc4ccc5ccc(=O)[nH]c5c4)c4sccc4n3)cc2)CC1,81%,5.23 µM,10.1 µM,> 10 µM,5.34 µM,17.5 µM,0.24 µM,> 42,–
CN1CCN(Cc2ccc(Nc3nc(Oc4ccc5ccc(=O)[nH]c5c4)c4sccc4n3)cc2)CC1,83%,7.99 µM,10.8 µM,> 10 µM,8.08 µM,19.3 µM,0.2 µM,> 50,–
C=CC(=O)Nc1cccc(Oc2nc(Nc3ccc(N4CCN(C)CC4)cc3)nc3ccsc23)c1 [OLMUTINIB],–,0.026 µM,9.61 µM,–,–,16.5 µM,–,–,–
O=c1ccc2ccc(Oc3nc(Nc4ccc(F)cc4)nc4ccsc34)cc2[nH]1,8%,–,–,> 10 µM,–,–,> 1 µM,–,–
CCN1CCN(c2ccc(Nc3nc(Oc4ccc5ccc(=O)[nH]c5c4)c4sccc4n3)c(OC)c2)CC1,75%,4.4 µM,10.1 µM,> 10 µM,> 20 µM,24.8 µM,0.33 µM,> 30,–
CCN1CCN(c2nc(Oc3ccc4ccc(=O)[nH]c4c3)c3sccc3n2)CC1,inactive,> 20 µM,–,> 10 µM,–,–,> 1 µM,–,–
O=c1ccc2ccc(Oc3nc(Nc4ccc(N5CCOCC5)c(F)c4)nc4ccsc34)cc2[nH]1,39%,–,–,> 10 µM,–,–,> 1 µM,–,–
O=c1ccc2ccc(Oc3nc(Nc4ccc(N5CCC(N6CCCCC6)CC5)cc4)nc4ccsc34)cc2[nH]1,83%,–,–,> 10 µM,–,–,–,–,–
COc1cccc(Nc2nc(Oc3ccc4ccc(=O)[nH]c4c3)c3sccc3n2)c1,22%,–,–,> 10 µM,–,–,> 1 µM,–,–
C#Cc1cccc(Nc2ncnc3cc(OCCOC)c(OCCOC)cc23)c1 [ERLOTINIB],–,7.25 µM,> 20 µM,–,–,> 50 µM,–,–,–
CN1CCN(c2ccc(Nc3nc(Oc4ccc5ccc(=O)[nH]c5c4)c4sccc4n3)cc2)CC1,82%,> 50 µM,4.15 µM,> 10 µM,3.46 µM,5.78 µM,0.25 µM,> 40,–
O=c1ccc2ccc(Oc3nc(Nc4ccc(CN5CCOCC5)cc4)nc4ccsc34)cc2[nH]1,60%,–,–,> 10 µM,–,–,–,–,–
CN(C)CCNc1ccc(Nc2nc(Oc3ccc4ccc(=O)[nH]c4c3)c3sccc3n2)cc1F,81%,3.2 µM,10.8 µM,14 µM,2.92 µM,16 µM,0.23 µM,61,inhibition [6]: 5%; inhibition (INH) [7]: Not Active; inhibition (NCI-H1975 [8]): Active; inhibition [9]: Dose-dependent effect; Activity (A549 [10]): Non-Toxic; inhibition [11]: 53%; inhibition [12]: 43%; Activity [13]: Not Active; inhibition [14]: 34%; inhibition [15]: 89%; Activity (A549 [16]): Toxic; inhibition (INH) [17]: Not Active; Activity [18]: Active; inhibition [19]: Dose-dependent effect; inhibition (NCI-H1975 [20]): Dose-dependent effect; inhibition [21]: 66%
COc1cc(N2CCN(C)CC2)ccc1Nc1nc(Oc2ccc3ccc(=O)[nH]c3c2)c2sccc2n1,74%,6.76 µM,6.95 µM,> 10 µM,> 20 µM,22.1 µM,0.33 µM,> 30,–
O=c1ccc2ccc(Oc3nc(Nc4ccc(N5CCC(N6CCCCC6)CC5)c(F)c4)nc4ccsc34)cc2[nH]1,87%,5.6 µM,10.9 µM,12.4 µM,10.4 µM,16.7 µM,0.11 µM,113,Activity [13]: Not Active; Activity [18]: Active
CN1CCN(c2ccc(Nc3nc(Oc4ccc5ccc(=O)[nH]c5c4)c4sccc4n3)nc2)CC1,32%,> 20 µM,–,> 10 µM,> 20 µM,–,> 1 µM,–,–
